Where two headings read alike, the source gives them in different places.
Columns and labels:
[1] = test system: Human promyeloid leukemia HL-60 cells; experiment: Cytotoxicity Assays Method B (MTT proliferation assay), HL-60; format: cell-based; details: Homo sapiens, read-out: IC50 (concentration at which 50% of the cells are inhibited from growing)
Experimental: Cytotoxicity Assays Method B (HL-60) [H. M. Chen et al. Chin. Pharm. J. 53, 157-167 (2001)]
Human promyeloid leukemia HL-60 cells were obtained from the American Type
Culture Collection (Manassas, Va., USA) and the Culture Collection and Research Center(CCRC) (Tai wan, ROC). Human promyeloid leukemia HL-60 cells were cultured in suspension in RPMI-1640 medium (GIBCO, Grand Is land, USA), containing 10% fetal bovine se rum (GIBCO, Grand Is land, USA), 100 unit/mL penicillin, […] streptomycin and 1% L-glutamine at 37° C. in a humidified atmosphere of 5% CO2 in air. Cells were split every day to maintain the cell numbers between 2−5×10^5/mL. Cell numbers were assessed by the standard procedure of leukocyte counting using a hemocytometer and cell viability was checked by the ability of cells to exclude Trypan blue.
Cellular proliferation was determined by the MTT [3-(4,5-dimethylthiazol-2-yl)-2,5-diphenyltetrazolium bromide] as say. Briefly, […] of MTT (5 mg/mL) was added to each well of 96-well plates containing 1×10^5 cells after treatment with different concentrations of samples for 4 days. The reaction was stopped after 2 h by adding […] of 0.04 N HCl in isopropanol and the OD570 nm was determined by a minicolorimetric reader. Each concentration treatment was performed in triplicate.

[2] = test system: epidermoid carcinoma of the nasopharynx (KB); experiment: Cytotoxicity Assays Method C, KB; format: cell-based; details: 72 h, read-out: IC50 KB
[3] = test system: p-gp-expressing epidermoid carcinoma of the nasopharynx (KB-VIN); experiment: Cytotoxicity Assays Method C, KB-VIN; format: cell-based; details: for IC50: 50% reduction in cell number after 72 hr of incubation
Source text: Cytotoxicity Assays Method C (KB, KB-VIN, AS49, HCT-8, PC-3) [K. H. Lee et. al. Planta Med. 54, 308-312 (1998), Monk A et. al. J. Natl. Cancer Inst. 83, 757-766 (1991).] The cell lines included epidermoid caninoma of the nasopharynx (KB), p-gp-expressing epidermoid caninoma of the nasopharynx (KB-VIN), lung carcinoma (A-549), ileocecal carinoma (HCT-8) and prostate cancer (PC-3) cell lines.

[4] = test system: lung carcinoma (A-549); experiment: Cytotoxicity Assays Method C, A-549; format: cell-based; details: Homo sapiens, A549, 72 h, read-out: IC50 A549
[5] = test system: ileocecal carcinoma (HCT-8); experiment: Cytotoxicity Assays Method C, HCT-8; format: cell-based; details: Homo sapiens, HCT-8, 72 h, read-out: IC50 HCT-8
[6] = test system: prostate cancer (PC-3); experiment: Cytotoxicity Assays Method C, PC-3; format: cell-based; details: for IC50: 72 h, read-out: IC50 PC-3
[7] = Cytotoxicity Assays Method A (alamarBlue anti-proliferative assay), HUVEC; format: cell-based; details: human, HUVEC (human umbilical vein endothelial cells), 72-hour incubation, alamarBlue
Source text: (§1) Cytotoxicity Assays Method A (HUVEC, MCF-7, HT-29, Hep 3B and NCl-H460) [S. A. Ahmed, R. M. Gogal Jr., and J. E. Walsh, Journal of Immunological Methods 170: 211-224, (1994): M. R. Boyd, Status of the NCl preclinical antitumor drug discovery screen. (Published by J. B. Lippincoft Company, Philadelphia, Pa. 19105, USA) Principles & Practices of Oncology Updates 3 # 10: 1-12, (1989); M. R. Boyd, et al. Data display and analysis strategies for the NCl disease-oriented in vitro antitumor drug screen. In: Cytotoxic anti-cancer drugs: models and concepts for drug discovery and development. Boston: Kluwer Academic, Pages; 11-34, (1992)]
(§2) The test compounds were dissolved in 100% DMSO and then diluted with sterile distilled water to obtain initial working solutions of 20000, 2000, 200, 20 and 2 μM in 80% DMSO. A 200 fold dilution was further made in culture media to generate final assay concentrations of 100, 10, 1, 0.1 and 0.01 μM in 0.4% DMSO.
(§3) Aliquots of 100 μl of cell suspension (about 1.5-3.0×10^3/well) were placed in 96-well microtiter plates in an atmosphere of 5% CO2 at 37° C. After 24 hours, 100 μl of growth medium and 1 μl of test solution or vehicle (80% DMSO) were added respectively per well in duplicate for an additional 72-hour incubation. Thus, the final concentration of DMSO was 0.4%. The test compounds, IIa-1, IIb-1 and VII-1 were evaluated at concentrations of 100, 10, 1, 0.1 and 0.01 μM. At the end of incubation, 20 μl of alamarBlue 90% reagent was added to each well for another 6-hour incubation before detection of cell viability by fluorescent intensity. Fluorescent intensity was measured using a Spectraflour Plus plate reader with excitation at 530 nm and emission at 590 nm.
(§4) The measured results was calculated by the following formula: PG(%)=100×(Mean Ftest−Mean Ftime0)/(Mean Fctrl−Mean Ftime0)] If(Mean Ftest−Mean Ftime0)<0, then PG(%)=100×(Mean Ftest−Mean Ftime0)/(Mean Ftime0−Mean Fblank) wherein PG represents percent growth;
(§5) A decrease of 50% or more (≧50%) in fluorescent intensity relative to the vehicle-treated control indicates significant cytostatic or cytotoxic activity, and semi-quantitative values for IC50, TGI and LC50 were then determined by nonlinear regression using GraphPad Prism (GraphPad Software, USA).
(§6) IC50 (50% Inhibition Concentration); Test compound concentration where the increase from times in the number or mass of treated cells was only 50% as much as the corresponding increase in the vehicle-control at the end of experiment.
(§7) TGI (Total Growth Inhibition): Test compound concentration where the number or mass of treated cells at the end of experiment was equal to that at time0.
(§8) LC50 (50% Lethal Concentration): Test compound concentration where the number or mass of treated cells at the end of experiment was half that at time.
(§9) The assays were used to detect changes in cell proliferation based on the ability of viable cells to cause alamarBlue to change from its oxidized to a reduced form. With the results obtained from the alamarBlue reaction, cell proliferation can be quantified and metabolic activity of viable cell can be examined.
(§10) The succinate derivatives of compounds IIa-1, IIb-1 and VII-1 were tested for possible effect on the proliferation of four human tumor cell lines ˜MCF-7 (breast), HT-29 (colon), Hep3B (liver), and NCl—H 460 (lung) as well as one human umbilical vein endothelial cell (HUVEC) at assay concentration from 0.01 to 100 μM, through serial 10-fold dilution.

[8] = test system: HUVEC; experiment: as above; format: cell-based
Source text: as §1, §2, §3, §4, §5, §6, §7, §8, §9, §10

[9] = test system: MCF-7; experiment: Cytotoxicity Assays Method A (alamarBlue anti-proliferative assay), MCF-7; format: cell-based
Source text: as §1, §2, §3, §4, §5, §6, §7, §8, §9, §10

[10] = test system: HT-29; experiment: Cytotoxicity Assays Method A (alamarBlue anti-proliferative assay), HT-29; format: cell-based
Source text: as §1, §2, §3, §4, §5, §6, §7, §8, §9, §10

[11] = test system: Hep 3B; experiment: Cytotoxicity Assays Method A (alamarBlue anti-proliferative assay), Hep 3B; format: cell-based
Source text: as §1, §2, §3, §4, §5, §6, §7, §8, §9, §10

[12] = test system: NCI-H460; experiment: Cytotoxicity Assays Method A (alamarBlue anti-proliferative assay), NCI-H460; format: cell-based
Source text: as §1, §2, §3, §4, §5, §6, §7, §8, §9, §10

O=C(O)CCCC(=O)OCc1cc2c(s1)C(=O)c1sccc1C2=O [IIa-2, Mono-[1-(4,8-dioxo-4,8-dihydrobenzo[1,2-b:5,4-b′]dithiophen-2-yl)-methyl]pentanedioate]
IC50 ([1]; 96 h, HL-60, MTT, treatment for 4 days): 700 nM | IC50 [2]: 2220 nM | IC50 ([3]; Homo sapiens, KBVIN, 72 h): 1390 nM | IC50 [4]: 2080 nM | IC50 [5]: 1660 nM | IC50 [6]: 750 nM | melting point: 220 °C (dec.)

CC(OC(=O)CCC(=O)O)c1cc2c(s1)C(=O)c1ccsc1C2=O (stereo not drawn) [VII-1, Mono-[1-(4,8-dioxo-4,8-dihydroxybenzo[1,2-b;4,5-b′]dithiophen-2-yl)-ethyl]succinate]
LC50 (50% lethal concentration) at 72 h [7]: > 100000 nM | TGI (Total growth Inhibition) ([8]; 72-hour incubation, alamarBlue): 57000 nM | IC50 ([8]; Homo sapiens, 72 h, read-out: IC50 (50% Inhibition Concentration)): 11000 nM | IC50 ([9]; Homo sapiens, MCF7, 72 h, read-out: IC50 (50% Inhibition Concentration)): 960 nM | CC50 ([9]; Homo sapiens, MCF7, MCF-7, 72-hour incubation, alamarBlue, read-out: LC50 (50% Lethal Concentration)): 31000 nM | TGI (Total growth Inhibition) ([9]; MCF-7, 72-hour incubation, alamarBlue): 5500 nM | cytotoxicity against MCF-7 (in words) ([9]; MCF-7, summary of Table 1): significant cytotoxicity | TGI (Total growth Inhibition) ([10]; HT-29, 72-hour incubation, alamarBlue): 38000 nM | activity against HT-29 (in words) ([10]; HT-29, summary of Table 1): moderate activity | IC50 ([10]; Homo sapiens, HT-29, 72 h, read-out: IC50 (50% Inhibition Concentration)): 4500 nM | LC50 (50% lethal concentration) ([10]; Homo sapiens, HT-29, 72-hour incubation, alamarBlue): > 100000 nM | cytotoxicity against Hep3B (in words) ([11]; Hep3B, summary of Table 1): significant cytotoxicity | TGI (Total growth Inhibition) ([11]; Hep-3B, 72-hour incubation, alamarBlue): 1900 nM | IC50 ([11]; Homo sapiens, Hep3B, 72 h, read-out: IC50 (50% Inhibition Concentration)): 1000 nM | CC50 ([11]; Homo sapiens, Hep3B, Hep-3B, 72-hour incubation, alamarBlue, read-out: LC50 (50% Lethal Concentration)): 3400 nM | IC50 ([12]; Homo sapiens, NCI-H460, 72 h, read-out: IC50 (50% Inhibition Concentration)): 410 nM | CC50 ([12]; Homo sapiens, NCI-H460, 72-hour incubation, alamarBlue, read-out: LC50 (50% Lethal Concentration)): 3000 nM | TGI (Total growth Inhibition) ([12]; NCI-H460, 72-hour incubation, alamarBlue): 1100 nM | IC50 ([1]; HL-60, 96 h): 260 nM | IC50 [2]: 190 nM | IC50 [3]: 220 nM | activity against the MDR cell line KB-VIN (in words) ([3]; summary of Table 3): potent activity | IC50 [4]: 470 nM | IC50 [5]: 420 nM | IC50 [6]: 160 nM | activity against the androgen-insensitive prostate cancer cell line PC-3 (in words) ([6]; PC-3, summary of Table 3): potent activity

— patent publication US7332615B2, “Hydrophilic analogs of 4,8-dihydrobenzodithiophene-4,8-diones as anticancer agents” (Industrial Technology Research Institute, priority 2004, dated 2008)
